A short description of data set [1]: Measurement of thermodynamic solubility. It counts as physicochemical. To be noted: thermodynamic from solid, read-out: solubility in water. On the procedure:
Thermodynamic solubility for the compounds of the invention listed in Table C is measured by a published literature procedure, e.g., Liping Zhou, et al., J. Pharm. Sci (2007) 96(11): 3052-3071.
The DMSO stocks of test compounds previously dissolved in 25 μL of DMSO (˜10 mM) in mini-prep vial (MPV: Whatman, with PVDF filter and 0.45 μm pore size) chamber were evaporated via a GeneVac HT-4X evaporator for approximately 1 hour, at the guard temperature of 30° C. An aliquot of 250 μL buffer solution (pH 1.0 or 6.8) was added into each MPV chamber containing powders reconstituted from DMSO stock solutions. The MPV filter plungers were pushed down into the chamber until the membrane of the filter plunger slightly touched the surface of the buffer to promote equilibrium between the two compartments and to minimize the adsorption due to non-specific binding of samples during the subsequent 24-hr incubation (at 600 RPM at room temperature). Immediately after the 24-hr incubation, the plungers were further pushed down to the bottom of the chambers. More solution was pushed through the membrane and entered the plunger compartment. The filter/chamber assemblies were then put on a shaker for another 30 minutes at 600 RPM. Afterwards, filtrates were further diluted (1:10) with 50/50 acetonitrile/water solvent followed by a thorough mixing process. Both plates with diluted and undiluted filtrates were analyzed by HPLC and quantified against the four-point standard dilution curve of the same test compound (5 μM, 35 μM, 65 μM and 100 μM, respectively). In the current study, solubility reflects the average of triplicate samples tested at each pH.

The target in data set [2] is T1, HCV NS3-4A serine protease (full-length NS3-4A protein, genotype 1a, strain HCV-1) (Hepatitis C virus genotype 1a, UniProt P26664).
T1 construct: using the full-length NS3-4A protein (genotype 1a, strain HCV-1)
T1 sequence (P26664 1658-1711): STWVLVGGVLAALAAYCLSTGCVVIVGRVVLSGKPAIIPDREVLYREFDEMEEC
T1 sequence (P26664 1027-1657): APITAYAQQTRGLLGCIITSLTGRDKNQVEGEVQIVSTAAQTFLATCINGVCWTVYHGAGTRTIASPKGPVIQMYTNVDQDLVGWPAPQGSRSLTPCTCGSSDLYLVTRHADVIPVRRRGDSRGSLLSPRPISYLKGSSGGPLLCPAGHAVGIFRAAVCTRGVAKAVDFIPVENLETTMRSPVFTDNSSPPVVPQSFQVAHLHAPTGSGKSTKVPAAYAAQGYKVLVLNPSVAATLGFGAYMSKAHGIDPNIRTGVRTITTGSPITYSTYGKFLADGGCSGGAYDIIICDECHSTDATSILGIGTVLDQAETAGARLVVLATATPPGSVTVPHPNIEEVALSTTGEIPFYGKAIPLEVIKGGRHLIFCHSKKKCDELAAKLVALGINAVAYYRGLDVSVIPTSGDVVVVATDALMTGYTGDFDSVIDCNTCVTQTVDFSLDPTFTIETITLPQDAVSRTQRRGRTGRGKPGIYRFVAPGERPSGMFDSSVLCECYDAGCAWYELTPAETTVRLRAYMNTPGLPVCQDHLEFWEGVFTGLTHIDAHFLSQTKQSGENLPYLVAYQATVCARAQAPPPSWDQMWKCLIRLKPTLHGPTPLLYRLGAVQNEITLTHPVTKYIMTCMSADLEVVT
As to the kind of experiment: HCV NS3-4A protease assay. Type of data set: biochemical. The settings on record: Protease IC50. On the procedure:
The inhibitory activity of certain compounds of Table A against HCV NS3-4A serine protease is determined in a homogenous assay using the full-length NS3-4A protein (genotype 1a, strain HCV-1) and a commercially available internally-quenched fluorogenic peptide substrate as described by Taliani, M., et al. 1996 Anal. Biochem. 240:60-67, which is incorporated by reference in its entirety.

The next data set is described as follows: in vivo. Also noted: species or system Sprague Dawley rats. To be noted: rat; for Cmax: po, 10 mg/kg. On the procedure:
Certain compounds of Table A and Comparative Example 1 (Compound A-7 of copending international patent application serial no. PCT/EP08/063,460) are administered as a solution orally via gavage at 10 mg/kg to Sprague Dawley rats at a dosing volume of 10 ml/kg. Samples are collected via a surgically implanted cannula at selected timepoints deemed necessary to characterize pharmacokinetic parameters. Blood samples are placed on wet ice and spun down to plasma within 5 minutes of timepoint collection. Plasma samples are frozen until bioanalytical analysis.
Certain compounds of Table A and Comparative Example 1 are administered intravenously into a surgically implanted cannula as a solution at 1 mg/kg to Sprague Dawley rats at a dosing volume of […]. Samples are collected via another surgically implanted cannula at selected timepoints deemed necessary to characterize pharmacokinetic parameters. Blood samples are placed on wet ice and spun down to plasma within 5 minutes of timepoint collection. Plasma samples are frozen until bioanalytical analysis.

The mark [3] stands for this setting: pH 1, simulated gastric fluid, pH of about 1.
The mark [4] stands for this setting: pH 6.8, aqueous buffer, pH of about 6.8.

Like-named read-outs stand apart in the source and are kept apart here. Bounds are passed on as bounds.

Usually solubility stands for how much of the substance goes into solution per volume. For orientation: IC50 means the concentration at which inhibition is half-maximal. `C=C[C@@H]1C[C@]1(NC(=O)[C@@H]1C[C@@]2(CN1C(=O)[C@@H](NC(=O)[C@@H](NC(=O)[C@@H]1CCCCN1CC)C1CCCCC1)C(C)(C)C)C(C)(C)C21CCC1)C(=O)NS(=O)(=O)C1(CCC)CC1` [Compound 67, (5R,8S)-7-[(2S)-2-{[(2S)-2-cyclohexyl-2-({[(2S)-1-ethylpiperidin-2-yl]carbonyl}amino)acetyl]amino}-3,3-dimethylbutanoyl]-10,10-dimethyl-N-[(1R,2S)-1-{[(1-propylcyclopropyl)sulfonyl]carbamoyl}-2-vinylcyclopropyl]-7-azadispiro[3.0.4.1]decane-8-carboxamide]: the solubility at 24 h in data set [1] (setting [3]) is not below 100 µM; in data set [1] (setting [4]), not below 30 µM. For the same compound, the IC50 in data set [2] is 1.5 nM.
Regarding `CCCC1(S(=O)(=O)NC(=O)[C@@]2(NC(=O)[C@@H]3C[C@@]4(CN3C(=O)[C@@H](NC(=O)[C@@H](NC(=O)[C@@H]3CCCCN3C(C)C)C3CCCCC3)C(C)(C)C)C(C)(C)C43CCC3)C[C@H]2CC)CC1` [Compound 77, (5R,8S)-7-[(2S)-2-{[(2S)-2-cyclohexyl-2-({[(2S)-1-isopropylpiperidin-2-yl]carbonyl}amino)acetyl]amino}-3,3-dimethylbutanoyl]-N-[(1R,2R)-2-ethyl-1-{[(1-propylcyclopropyl)sulfonyl]carbamoyl}cyclopropyl]-10,10-dimethyl-7-azadispiro[3.0.4.1]decane-8-carboxamide], the solubility at 24 h was not below 100 µM in data set [1] (setting [3]) and not below 30 µM in data set [1] (setting [4]). Also, the IC50 in data set [2] was 2 nM.
Usually bioavailability stands for dose-corrected exposure relative to a reference, in per cent. Lower therefore signals poor availability. A word on the Cmax: it is the maximum level reached in the sampled fluid or tissue. For the compound `CC[C@@H]1C[C@]1(NC(=O)[C@@H]1C[C@@]2(CN1C(=O)[C@@H](NC(=O)[C@@H](NC(=O)[C@@H]1CCCN1CC)C1CCCCC1)C(C)(C)C)C(C)(C)C21CCC1)C(=O)NS(=O)(=O)C1(C)CC1` [Compound 81, (5R,8S)-7-[(2S)-2-{[(2S)-2-cyclohexyl-2-({[(2S)-1-ethylpyrrolidin-2-yl]carbonyl}amino)acetyl]amino}-3,3-dimethylbutanoyl]-N-[(1R,2R)-2-ethyl-1-{[(1-methylcyclopropyl)sulfonyl]carbamoyl}cyclopropyl]-10,10-dimethyl-7-azadispiro[3.0.4.1]decane-8-carboxamide], the solubility at 24 h in data set [1] (setting [3]) was not below 100 µM. Besides, the solubility at 24 h in data set [1] (setting [4]) is not below 30 µM. Besides, the IC50 in data set [2] stood at 0.6 nM. In “in vivo” (Sprague Dawley), this compound registered a bioavailability of 22% and a Cmax of 692 nM.
For `CC[C@@H]1C[C@]1(NC(=O)[C@@H]1C[C@@]2(CN1C(=O)[C@@H](NC(=O)[C@@H](NC(=O)[C@@H]1CCCCN1C(C)C)C1CCCCC1)C(C)(C)C)C(C)(C)C21CCC1)C(=O)NS(=O)(=O)C1(C)CC1` [Compound 70, (5R,8S)-7-[(2S)-2-{[(2S)-2-cyclohexyl-2-({[(2S)-1-isopropylpiperidin-2-yl]carbonyl}amino)acetyl]amino}-3,3-dimethylbutanoyl]-N-[(1R,2R)-2-ethyl-1-{[(1-methylcyclopropyl)sulfonyl]carbamoyl}cyclopropyl]-10,10-dimethyl-7-azadispiro[3.0.4.1]decane-8-carboxamide], the solubility at 24 h was not below 100 µM in data set [1] (setting [3]) and not below 30 µM in data set [1] (setting [4]). In data set [2], this compound gave an IC50 of 2 nM. Besides, the Cmax in “in vivo” (Sprague Dawley) turned out to be 130 nM.
Take `C=C[C@@H]1C[C@]1(NC(=O)[C@@H]1C[C@@]2(CN1C(=O)[C@@H](NC(=O)[C@@H](NC(=O)[C@@H]1CCCN1CC)C1CCCCC1)C(C)(C)C)C(C)(C)C21CCC1)C(=O)NS(=O)(=O)C1(CCC)CC1` [Compound 69, (5R,8S)-7-[(2S)-2-{[(2S)-2-cyclohexyl-2-({[(2S)-1-ethylpyrrolidin-2-yl]carbonyl}amino)acetyl]amino}-3,3-dimethylbutanoyl]-10,10-dimethyl-N-[(1R,2S)-1-{[(1-propylcyclopropyl)sulfonyl]carbamoyl}-2-vinylcyclopropyl]-7-azadispiro[3.0.4.1]decane-8-carboxamide]: the solubility at 24 h in data set [1] (setting [3]) is not below 100 µM; in data set [1] (setting [4]), not below 30 µM. Also, in data set [2], half-maximal inhibition (IC50) was put at 1.5 nM.
In the data set “in vivo”, `C=C[C@@H]1C[C@]1(NC(=O)[C@@H]1C[C@@]2(CN1C(=O)[C@@H](NC(=O)OC(C)(C)C)C(C)C)C(C)(C)C21CCC1)C(=O)NS(=O)(=O)C1CC1` [compound 1, tert-butyl [(1S)-1-{[(5R,8S)-8-({(1R,2S)-1-[(cyclopropylsulfonyl)carba-moyl]-2-vinylcyclopropyl}carbamoyl)-10,10-dimethyl-7-azadispiro[3.0.4.1]dec-7-yl]carbonyl}-2-methylpropyl]carbamate, reference compound] registered a bioavailability of 2%.
In the case of `C=C[C@@H]1C[C@]1(NC(=O)[C@@H]1C[C@@]2(CN1C(=O)[C@@H](NC(=O)[C@@H](NC(=O)[C@H]1CCCCN1C(C)C)C1CCCCC1)C(C)(C)C)C(C)(C)C21CCC1)C(=O)NS(=O)(=O)C1(C)CC1` [Compound 74, (5R,8S)-7-[(2S)-2-{[(2S)-2-cyclohexyl-2-({[(2R)-1-isopropylpiperidin-2-yl]carbonyl}amino)acetyl]amino}-3,3-dimethylbutanoyl]-10,10-dimethyl-N-[(1R,2S)-1-{[(1-methylcyclopropyl)sulfonyl]carbamoyl}-2-vinylcyclopropyl]-7-azadispiro[3.0.4.1]decane-8-carboxamide], the solubility at 24 h in data set [1] (setting [3]) was not below 100 µM; in data set [1] (setting [4]), not below 30 µM. Further, in data set [2], half-maximal inhibition (IC50) required 0.8 nM.
For the compound `C=C[C@@H]1C[C@]1(NC(=O)[C@@H]1C[C@@]2(CN1C(=O)[C@@H](NC(=O)[C@@H](NC(=O)[C@@H]1CCCN1CC)C1CCCCC1)C(C)(C)C)C(C)(C)C21CCC1)C(=O)NS(=O)(=O)C1(C)CC1` [Compound 71, (5R,8S)-7-[(2S)-2-{[(2S)-2-cyclohexyl-2-({[(2S)-1-ethylpyrrolidin-2-yl]carbonyl}amino)acetyl]amino}-3,3-dimethylbutanoyl]-10,10-dimethyl-N-[(1R,2S)-1-{[(1-methylcyclopropyl)sulfonyl]carbamoyl}-2-vinylcyclopropyl]-7-azadispiro[3.0.4.1]decane-8-carboxamide], the values for the solubility at 24 h in data set [1] (setting [3]) and in data set [1] (setting [4]) were not below 100 µM and not below 30 µM, respectively. Half-maximal inhibition in data set [2] (IC50) required 0.3 nM.
As to `CCCC1(S(=O)(=O)NC(=O)[C@@]2(NC(=O)[C@@H]3C[C@@]4(CN3C(=O)[C@@H](NC(=O)[C@@H](NC(=O)[C@@H]3CCCCN3CC)C3CCCCC3)C(C)(C)C)C(C)(C)C43CCC3)C[C@H]2CC)CC1` [Compound 76, (5R,8S)-7-[(2S)-2-{[(2S)-2-cyclohexyl-2-({[(2S)-1-ethylpiperidin-2-yl]carbonyl}amino)acetyl]amino}-3,3-dimethylbutanoyl]-N-[(1R,2R)-2-ethyl-1-{[(1-propylcyclopropyl)sulfonyl]carbamoyl}cyclopropyl]-10,10-dimethyl-7-azadispiro[3.0.4.1]decane-8-carboxamide], the solubility at 24 h in data set [1] (setting [3]) was not below 100 µM; in data set [1] (setting [4]), not below 30 µM. This compound also displayed an IC50 in data set [2] of 6 nM.
As to `CC[C@@H]1C[C@]1(NC(=O)[C@@H]1C[C@@]2(CN1C(=O)[C@@H](NC(=O)[C@@H](NC(=O)[C@@H]1CCCN1C(C)C)C1CCCCC1)C(C)(C)C)C(C)(C)C21CCC1)C(=O)NS(=O)(=O)C1(C)CC1` [Compound 82, (5R,8S)-7-[(2S)-2-{[(2S)-2-cyclohexyl-2-({[(2S)-1-isopropylpyrrolidin-2-yl]carbonyl}amino)acetyl]amino}-3,3-dimethylbutanoyl]-N-[(1R,2R)-2-ethyl-1-{[(1-methylcyclopropyl)sulfonyl]carbamoyl}cyclopropyl]-10,10-dimethyl-7-azadispiro[3.0.4.1]decane-8-carboxamide], the results for the solubility at 24 h in data set [1] (setting [3]) and in data set [1] (setting [4]) were not below 100 µM and not below 30 µM, respectively. Besides, the IC50 in data set [2] was 2.4 nM.

Values taken from patent US20110182850A1, “ORGANIC COMPOUNDS AND THEIR USES” (priority 2009, published 2011).
